One may read the IC50 as the concentration that inhibits the measured activity by half. A high value points to weaker potency in that assay.

Structures are written as SMILES.

For data set [1] the following is noted: Phase I clinical evaluation; cited from earlier work.
Data set [2] has as its system NCI-N87 cells. The data set can be described thus: Cell viability assay (CellTiter-Glo), NCI-N87. As to conditions: Homo sapiens, HER2 expressing cells, 72 h. The class given is cell-based. The procedure: (§1) Cell Viability Assay for Antibody-Polymer-Drug Conjugates.
(§2) PBD compounds and conjugates thereof were evaluated for their antiproliferation properties in tumor cell lines in vitro using CellTiter-Glo® (Promega Corp). Cells were plated in black walled 96-well plate and allowed to adhere overnight at 37° C. in a humidified atmosphere of 5% CO2. BT474, SKBR3, NCI-N87 cells (HER2 expressing cells), JIMT1 cells (HER2 medium expression level cells) and MCF7 cells (HER2 low expressing levels cells) and were plated at a density of 5,000 cells per well. The next day the medium was replaced with 50 μL fresh medium and 50 μL of 2× stocks of PBD compounds or antibody-PBD conjugate were added to appropriate wells, mixed and incubated for 72 h. CellTiter-Glo® reagent was added to the wells at room temperature and the luminescent signal was measured after 10 min using a SpectraMax M5 plate reader (Molecular Devices). Dose response curves were generated using SoftMax Pro software. IC50 values were determined from four-parameter curve fitting.
(Cellular ATP, detected with luciferase, serves as a proxy for viable cell number.)

The subject of data set [3] is MCF7 cells. The data set is described as follows: Cell viability assay (CellTiter-Glo), MCF7. Type of data set: cell-based. As to conditions: Homo sapiens, HER2 low expressing levels cells, 72 h. The procedure: as §1, §2
Data set [4] relates to SKBR3 cells. The data set is described as follows: Cell viability assay (CellTiter-Glo), SKBR3. As to conditions: Homo sapiens, SK-BR-3, HER2 expressing cells, 72 h. The class given is cell-based. The procedure:
as §1, §2

Data set [5] has as its system BT474 cells. The data set is described as follows: Cell viability assay (CellTiter-Glo), BT474. Type of data set: cell-based. As to conditions: Homo sapiens, BT-474, HER2 expressing cells, 72 h. The procedure: as §1, §2
Data set [6] concerns JIMT1 cells. The data set can be described thus: Cell viability assay (CellTiter-Glo), JIMT1. Type of data set: cell-based. The settings on record: Homo sapiens, JIMT-1, HER2 medium expression level cells, 72 h. As for the experimental part: as §1, §2

For the molecule `C=C1C[C@H]2C=Nc3cc(OCCCOc4cc5c(cc4OC)C(=O)N4CC(=C)C[C@H]4C=N5)c(OC)cc3C(=O)N2C1` [SJG-136], the maximum tolerated dose in data set [1] was 45 μg/m^2.

On to `C=C1C[C@H]2C=Nc3cc(OCCCC(=O)Nc4cn(C)c(C(=O)Nc5cc(C(=O)Nc6ccc(-c7nc8cc(N)ccc8[nH]7)cc6)n(C)c5)n4)c(OC)cc3C(=O)N2C1` [Compound 24, (S,Z)—N-(5-(4-(5-amino-1H-benzo[d]imidazol-2-yl)phenylcarbamoyl)-1-methyl-1H-pyrrol-3-yl)-4-(4-(7-methoxy-2-methylene-5-oxo-2,3,5,11a-tetrahydro-1H-benzo[e]pyrrolo[1,2-a][1,4]diazepin-8-yloxy)butanamido)-1-methyl-1H-imidazole-2-carboxamide], for which the IC50 is 3000 pM in data set [2] (PBD compounds (Table I)); 34000 pM in data set [3] (PBD compounds (Table I)); 1000 pM in data set [4] (PBD compounds (Table I)); 21000 pM in data set [5] (PBD compounds (Table I)); 1800 pM in data set [6] (PBD compounds (Table I)).

As for `C=C1CC2C=Nc3cc(OCCCC(=O)Nc4cn(C)c(C(=O)Nc5ccc(-c6cc(C(=O)n7ccc8cc(OC)ccc87)n(C)c6)cc5)n4)c(OC)cc3C(=O)N2C1` (centres unmarked) [Compound 107, (Z)—N-(4-(5-(5-methoxy-1H-indole-1-carbonyl)-1-methyl-1H-pyrrol-3-yl)phenyl)-4-(4-(7-methoxy-2-methylene-5-oxo-2,3,5,11a-tetrahydro-1H-benzo[e]pyrrolo[1,2-a][1,4]diazepin-8-yloxy)butanamido)-1-methyl-1H-imidazole-2-carboxamide], the concentration for half-maximal inhibition (IC50) worked out at 30 pM in data set [2] (conjugates (Table II)); 70 pM in data set [3] (conjugates (Table II)); 20 pM in data set [4] (conjugates (Table II)); 160 pM in data set [5] (conjugates (Table II)); 30 pM in data set [6] (conjugates (Table II)).

With `C=C1CC2C=Nc3cc(OCCCC(=O)Nc4cn(C)c(C(=O)Nc5ccc(-c6cc(C(=O)n7ccc8cc(N)ccc87)n(C)c6)cc5)n4)c(OC)cc3C(=O)N2C1` (centres unmarked) [Compound 105, (Z)—N-(4-(5-(5-amino-1H-indole-1-carbonyl)-1-methyl-1H-pyrrol-3-yl)phenyl)-4-(4-(7-methoxy-2-methylene-5-oxo-2,3,5,11a-tetrahydro-1H-benzo[e]pyrrolo[1,2-a][1,4]diazepin-8-yloxy)butanamido)-1-methyl-1H-imidazole-2-carboxamide], the 50% inhibitory concentration (IC50) in data set [2] (conjugates (Table II)) turned out to be 30 pM; in data set [3] (conjugates (Table II)), 30 pM; in data set [4] (conjugates (Table II)) it was 7 pM; in data set [5] (conjugates (Table II)) it was 90 pM; in data set [6] (conjugates (Table II)) it was 40 pM.

As for `C=C1C[C@H]2C=Nc3cc(OCCCC(=O)Nc4cn(C)c(C(=O)Nc5ccc(-c6nc7ccc(N)cc7[nH]6)cc5)n4)c(OC)cc3C(=O)N2C1` [Compound 9, (S,Z)—N-(4-(5-amino-1H-benzo[d]imidazol-2-yl)phenyl)-4-(4-(7-methoxy-2-methylene-5-oxo-2,3,5,11a-tetrahydro-1H-benzo[e]pyrrolo[1,2-a][1,4]diazepin-8-yloxy)butanamido)-1-methyl-1H-imidazole-2-carboxamide], the IC50 in data set [2] (PBD compounds (Table I)) worked out at 900 pM; in data set [3] (PBD compounds (Table I)), 1600 pM; in data set [4] (PBD compounds (Table I)), 300 pM; in data set [5] (PBD compounds (Table I)) it was 4000 pM; in data set [6] (PBD compounds (Table I)) it was 700 pM.

`C=C1C[C@H]2C=Nc3cc(OCCCC(=O)Nc4cn(C)c(C(=O)Nc5ccc(-c6nc7cc(OC)ccc7[nH]6)cc5)n4)c(OC)cc3C(=O)N2C1` [Compound 106, (S,Z)—N-(4-(5-methoxy-1H-benzo[d]imidazol-2-yl)phenyl)-4-(4-(7-methoxy-2-methylene-5-oxo-2,3,5,11a-tetrahydro-1H-benzo[e]pyrrolo[1,2-a][1,4]diazepin-8-yloxy)butanamido)-1-methyl-1H-imidazole-2-carboxamide]: the 50% inhibitory concentration (IC50) in data set [2] (conjugates (Table II)) was found to be 210 pM; in data set [3] (conjugates (Table II)), 840 pM; in data set [4] (conjugates (Table II)) it was 130 pM; in data set [5] (conjugates (Table II)), 730 pM; in data set [6] (conjugates (Table II)), 170 pM.

The record behind these values is US10526294B2, “Pyrrolobenzodiazepines and conjugates thereof” (priority 2016, dated 2020).
